In US12162872B2, “Cycloalkylurea derivative” (Sumitomo Pharma Co., Ltd., priority 2019, dated 2024):

Biological target: T1, Human orexin receptor type 2 (Homo sapiens, UniProt O43614)
T1 construct: expressed in transfected cells; host or cells: CHO cells (transient expression)
T1 sequence (O43614 1-444): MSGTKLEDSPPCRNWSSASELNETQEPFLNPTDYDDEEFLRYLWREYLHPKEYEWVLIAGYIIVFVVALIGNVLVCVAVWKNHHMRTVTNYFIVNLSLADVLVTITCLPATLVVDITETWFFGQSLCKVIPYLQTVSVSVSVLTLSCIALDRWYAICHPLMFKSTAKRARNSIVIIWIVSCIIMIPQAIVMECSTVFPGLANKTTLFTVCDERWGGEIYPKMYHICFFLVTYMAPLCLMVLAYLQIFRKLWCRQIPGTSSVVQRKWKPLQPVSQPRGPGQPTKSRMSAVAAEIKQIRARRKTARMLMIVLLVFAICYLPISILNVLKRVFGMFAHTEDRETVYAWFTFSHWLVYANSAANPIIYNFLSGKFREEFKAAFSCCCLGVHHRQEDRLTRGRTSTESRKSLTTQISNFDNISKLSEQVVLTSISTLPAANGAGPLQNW
Assay: Test 2: Evaluation of agonist activity for orexin receptor type 2 (aequorin luminescence, intracellular calcium mobilization in CHO cells)
Format: cell-based
Conditions: relative percentage of luminescence for the luminescence (100%) of Orexin A (100 pM); CHO cells transiently expressing human orexin receptor type 2 and apoaequorin; Orexin A Lot. 671009
Protocol: Test 2: Evaluation of Agonist Activity for Orexin Receptor Type 2
Human orexin receptor type 2 and apoaequorin were transiently expressed in CHO cells, and the agonist activity was evaluated based on intracellular calcium mobilization with ligand stimulation. The CHO cells transiently-expressed human orexin receptor type 2 and apoaequorin were seeded on a 384-well plate by 2,000 cells/well, and then incubated for 16-22 hours. After the plate was returned to room temperature, Coelenterazine hcp (final concentration: 1 μM) was added to the plate, and the plate was allowed to stand at room temperature for 2 hours. And then, Orexin A (PEPTIDE INSTITUTE, INC., Lot. 671009) or each test compound was added to the plate, and the luminescence of the cells was measured with FDSS7000 (Hamamatsu Photonics K.K.), wherein Orexin A and each test compound were dissolved in DMSO (final concentration: 0.1%), and diluted with a buffer (Hanks, 20 mM HEPES, 0.1% BSA). The agonist activity of each test compound for orexin receptor type 2 was calculated as relative percentage of luminescence for the luminescence (100%) of Orexin A (100 pM).

Compound | agonist activity (%)
CC(C)N(C)C1CN([C@H]2CCCC(F)(F)[C@@H]2NC(=O)N2CCC(C)(c3noc([C@@H]4C[C@@H]4F)n3)CC2)C1 [Example 148, N-[(1R,6S)-2,2-difluoro-6-{3-[methyl(propan-2-yl)amino]azetidin-1-yl}cyclohexyl]-4-{5-[(1S,2S)-2-fluorocyclopropyl]-1,2,4-oxadiazol-3-yl}-4-methylpiperidine-1-carboxamide] | 391
CCN(C)C1CCN([C@H]2CCCC(F)(F)[C@@H]2NC(=O)N2CCC(C)(c3noc([C@@H]4C[C@@H]4F)n3)CC2)CC1 [Example 160, N-[(1R,6S)-6-{4-[ethyl(methyl)amino]piperidin-1-yl}-2,2-difluorocyclohexyl]-4-{5-[(1S,2S)-2-fluorocyclopropyl]-1,2,4-oxadiazol-3-yl}-4-methylpiperidine-1-carboxamide] | 410
CN(CC1CC1)[C@@H]1CCCN([C@H]2CCCC(F)(F)[C@@H]2NC(=O)N2CCC(C)(c3noc([C@@H]4C[C@@H]4F)n3)CC2)CC1 [Example 145, N-[(1R,6S)-6-{(4R)-4-[(cyclopropylmethyl)(methyl)amino]azepan-1-yl}-2,2-difluorocyclohexyl]-4-{5-[(1S,2S)-2-fluorocyclopropyl]-1,2,4-oxadiazol-3-yl}-4-methylpiperidine-1-carboxamide] | 403
CC(C)N1C[C@H]2CC[C@@H](C1)[C@@H]2O[C@H]1CCCC(F)(F)[C@@H]1NC(=O)N1CCC(C)(c2noc([C@@H]3C[C@@H]3F)n2)CC1 [Example 104, N-[(1R,6S)-2,2-difluoro-6-{[(1R,5S,8S)-3-(propan-2-yl)-3-azabicyclo[3.2.1]octan-8-yl]oxy}cyclohexyl]-4-{5-[(1S,2S)-2-fluorocyclopropyl]-1,2,4-oxadiazol-3-yl}-4-methylpiperidine-1-carboxamide] | 289
CC(C)N1CC(O[C@H]2CCCC(F)(F)[C@@H]2NC(=O)N2CCC(C)(c3noc([C@@H]4C[C@@H]4F)n3)CC2)C1 [Example 89, N-[(1R,6S)-2,2-difluoro-6-{[1-(propan-2-yl)azetidin-3-yl]oxy}cyclohexyl]-4-{5-[(1S,2S)-2-fluorocyclopropyl]-1,2,4-oxadiazol-3-yl}-4-methylpiperidine-1-carboxamide] | 0
CC1(c2noc([C@@H]3C[C@@H]3F)n2)CCN(C(=O)N[C@@H]2[C@@H](N3CCC(N4CCCC4)CC3)CCCC2(F)F)CC1 [Example 124, N-{(1R,6S)-2,2-difluoro-6-[4-(pyrrolidin-1-yl)piperidin-1-yl]cyclohexyl}-4-{5-[(1S,2S)-2-fluorocyclopropyl]-1,2,4-oxadiazol-3-yl}-4-methylpiperidine-1-carboxamide] | 391
CC(C)N1CCN([C@H]2CCCC(C)(C)[C@@H]2NC(=O)N2CCC(C)(c3noc(C4CC4)n3)CC2)CC1 [Example 147, 4-(5-cyclopropyl-1,2,4-oxadiazol-3-yl)-N-{(1S,6S)-2,2-dimethyl-6-[4-(propan-2-yl)piperazin-1-yl]cyclohexyl}-4-methylpiperidine-1-carboxamide] | 373
CC(C)N1CCC(S[C@H]2CCCC(F)(F)[C@@H]2NC(=O)N2CCC(C)(c3noc([C@@H]4C[C@@H]4F)n3)CC2)CC1 [Example 154, N-[(1S,6S)-2,2-difluoro-6-{[1-(propan-2-yl)piperidin-4-yl]sulfanyl}cyclohexyl]-4-{5-[(1S,2S)-2-fluorocyclopropyl]-1,2,4-oxadiazol-3-yl}-4-methylpiperidine-1-carboxamide] | 493
CC1(c2noc([C@@H]3C[C@@H]3F)n2)CCN(C(=O)N[C@@H]2[C@@H](O[C@H]3CCN(CC4(F)CC4)C3)CCCC2(F)F)CC1 [Example 133, N-[(1R,6S)-2,2-difluoro-6-({(3S)-1-[(1-fluorocyclopropyl)methyl]pyrrolidin-3-yl}oxy)cyclohexyl]-4-{5-[(1S,2S)-2-fluorocyclopropyl]-1,2,4-oxadiazol-3-yl}-4-methylpiperidine-1-carboxamide] | 506
CC(C)CN(C)C1CCN([C@H]2CCCC(F)(F)[C@@H]2NC(=O)N2CCC(C)(c3noc([C@@H]4C[C@@H]4F)n3)CC2)CC1 [Example 157, N-[(1R,6S)-2,2-difluoro-6-{4-[methyl(2-methylpropyl)amino]piperidin-1-yl}cyclohexyl]-4-{5-[(1S,2S)-2-fluorocyclopropyl]-1,2,4-oxadiazol-3-yl}-4-methylpiperidine-1-carboxamide] | 392
CC(C)c1nccc(O[C@H]2CCCC(F)(F)[C@@H]2NC(=O)N2CCC(C)(c3noc([C@@H]4C[C@@H]4F)n3)CC2)n1 [Example 92, N-[(1R,6S)-2,2-difluoro-6-{[2-(propan-2-yl)pyrimidin-4-yl]oxy}cyclohexyl]-4-{5-[(1S,2S)-2-fluorocyclopropyl]-1,2,4-oxadiazol-3-yl}-4-methylpiperidine-1-carboxamide] | 16
CC1(c2noc(C3CC3)n2)CCN(C(=O)N[C@@H]2[C@@H](O[C@H]3CCN(CC4CC4)C3)CCCC2(F)F)CC1 [Example 122, N-[(1R,6S)-6-{[(3S)-1-(cyclopropylmethyl)pyrrolidin-3-yl]oxy}-2,2-difluorocyclohexyl]-4-(5-cyclopropyl-1,2,4-oxadiazol-3-yl)-4-methylpiperidine-1-carboxamide] | 369
CC1(CN2CC[C@H](O[C@H]3CCCC(F)(F)[C@@H]3NC(=O)N3CCC(C)(c4noc([C@@H]5C[C@@H]5F)n4)CC3)C2)COC1 [Example 150, N-[(1R,6S)-2,2-difluoro-6-({(3S)-1-[(3-methyloxetan-3-yl)methyl]pyrrolidin-3-yl}oxy)cyclohexyl]-4-{5-[(1S,2S)-2-fluorocyclopropyl]-1,2,4-oxadiazol-3-yl}-4-methylpiperidine-1-carboxamide] | 437
CC(C)N(C)[C@H]1CCN([C@H]2CCCC(F)(F)[C@@H]2NC(=O)N2CCC(C)(c3noc([C@@H]4C[C@@H]4F)n3)CC2)C1 [Example 96, N-[(1R,6S)-2,2-difluoro-6-{(3S)-3-[methyl(propan-2-yl)amino]pyrrolidin-1-yl}cyclohexyl]-4-{5-[(1S,2S)-2-fluorocyclopropyl]-1,2,4-oxadiazol-3-yl}-4-methylpiperidine-1-carboxamide] | 493
CN(C1CCC1)C1CCN([C@H]2CCCC(F)(F)[C@@H]2NC(=O)N2CCC(C)(c3noc([C@@H]4C[C@@H]4F)n3)CC2)CC1 [Example 159, N-[(1R,6S)-6-{4-[cyclobutyl(methyl)amino]piperidin-1-yl}-2,2-difluorocyclohexyl]-4-{5-[(1S,2S)-2-fluorocyclopropyl]-1,2,4-oxadiazol-3-yl}-4-methylpiperidine-1-carboxamide] | 392
CC(C)N1CCN([C@H]2CCC[C@H](F)[C@@H]2NC(=O)N2CCC(C)(c3noc([C@@H]4C[C@@H]4F)n3)CC2)CC1 [Example 156] | 323
CC(C)N1CCC2(CCN([C@H]3CCCC(F)(F)[C@@H]3NC(=O)N3CCC(C)(c4noc([C@@H]5C[C@@H]5F)n4)CC3)CC2)C1 [Example 127, N-{(1R,6S)-2,2-difluoro-6-[2-(propan-2-yl)-2,8-diazaspiro[4.5]decan-8-yl]cyclohexyl}-4-{5-[(1S,2S)-2-fluorocyclopropyl]-1,2,4-oxadiazol-3-yl}-4-methylpiperidine-1-carboxamide] | 367
CC(C)N1CCN([C@@H]2CCCC(F)(F)[C@H]2NC(=O)N2CCC(C)(c3noc([C@H]4C[C@H]4F)n3)CC2)CC1 [Example 82, N-{(1S,6R)-2,2-difluoro-6-[4-(propan-2-yl)piperazin-1-yl]cyclohexyl}-4-{5-[(1R,2R)-2-fluorocyclopropyl]-1,2,4-oxadiazol-3-yl}-4-methylpiperidine-1-carboxamide] | 69
CN(CC1CC1)C1CN([C@H]2CCCC(F)(F)[C@@H]2NC(=O)N2CCC(C)(c3noc([C@@H]4C[C@@H]4F)n3)CC2)C1 [Example 149, N-[(1R,6S)-6-{3-[(cyclopropylmethyl)(methyl)amino]azetidin-1-yl}-2,2-difluorocyclohexyl]-4-{5-[(1S,2S)-2-fluorocyclopropyl]-1,2,4-oxadiazol-3-yl}-4-methylpiperidine-1-carboxamide] | 419
CC1(c2noc([C@@H]3C[C@@H]3F)n2)CCN(C(=O)N[C@@H]2[C@@H](O[C@H]3CCN(CC4(C(F)(F)F)CC4)C3)CCCC2(F)F)CC1 [Example 135, N-[(1R,6S)-2,2-difluoro-6-{[(3S)-1-{[1-(trifluoromethyl)cyclopropyl]methyl}pyrrolidin-3-yl]oxy}cyclohexyl]-4-{5-[(1S,2S)-2-fluorocyclopropyl]-1,2,4-oxadiazol-3-yl}-4-methylpiperidine-1-carboxamide] | 396
